For this assay, the target named is BLyS (Homo sapiens, UniProt Q9Y275). Description: Chromatographic screening of immobilized BLyS binding polypeptides (affinity media). The conditions noted are these: peptide immobilized on SEPHAROSE 4 Fast Flow. The procedure: A reversed phase analytical assay was used in the assessment of the chromatographic performance of the six affinity media.
All columns were tested at 200 μl/min (170 cm/hr) using a Watson/Marlow 101 ru peristaltic pump. This setup allowed free use of numerous wash, protein and elution conditions. Detection was made using a Waters 2487 UV/VIS detector at 214 nm and 280 nm connected to a Waters Millennium workstation.
The columns were then tested with an array of possible elution conditions and monitored at 214 nm and 280 nm for release of BLyS. Fractions indicating possible BLyS elution based on UV absorbance were collected and analyzed by reversed phase chromatography for confirmation.

We go through six compounds from patent publication US7118872B2, “Binding polypeptides for B lymphocyte stimulator protein (BLyS)” (priority 2000, dated 2006).

Positions of bridges follow the written chain, without caps; N, C: chain ends. Residues, ends and D or L forms follow the SMILES beside them. No end group written: not given here.

BLyS, sequence (Q9Y275 134-285 limits assumed): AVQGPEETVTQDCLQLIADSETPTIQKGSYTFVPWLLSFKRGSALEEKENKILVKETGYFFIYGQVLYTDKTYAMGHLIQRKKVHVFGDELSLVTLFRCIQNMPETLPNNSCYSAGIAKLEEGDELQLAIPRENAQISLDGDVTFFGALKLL

For the compound `CSCC[C@H](NC(=O)[C@@H]1CSSC[C@H](NC(=O)[C@H](CC(N)=O)NC(=O)CNC(=O)CNC(=O)[C@H](CC(=O)O)NC(=O)CNC(C)=O)C(=O)N[C@@H](Cc2ccc(O)cc2)C(=O)N[C@@H]([C@@H](C)O)C(=O)N[C@@H](CC(=O)O)C(=O)N[C@@H](CO)C(=O)N[C@@H](CC(C)C)C(=O)N[C@@H]([C@@H](C)O)C(=O)N[C@@H](CCCCN)C(=O)N[C@@H](CC(C)C)C(=O)N[C@@H](Cc2c[nH]cn2)C(=O)N[C@@H](Cc2ccccc2)C(=O)N1)C(=O)NCC(=O)N[C@@H](CC(=O)O)C(=O)N[C@@H](CCC(=O)O)C(=O)N1CCC[C@H]1C(=O)NCC(=O)N1CCC[C@H]1C(=O)N[C@@H](CCC(=O)O)C(=O)NCC(=O)NCC(=O)NCC(=O)N[C@@H](CCCCN)C(=O)O` [DX217] (Ac-GDGGNCYTDSLTKLHFCMGDEPGPEGGGK-OH; disulfide 6-17; C-terminus assumed), the “release of BLyS from affinity media (elution condition)” value (shortened to “release of BLyS from affinity media”) was “would only release BLyS in the presence of pH 2 buffer”. Consider `CSCC[C@@H]1NC(=O)[C@H](Cc2c[nH]cn2)NC(=O)[C@@H](NC(=O)[C@H](CC(C)C)NC(=O)[C@H](CCCNC(=N)N)NC(=O)[C@H](CO)NC(=O)[C@H](CO)NC(=O)CNC(C)=O)CSSC[C@@H](C(=O)N[C@H](C(=O)N[C@@H](Cc2c[nH]cn2)C(=O)N[C@@H](Cc2ccccc2)C(=O)N[C@@H](C)C(=O)N2CCC[C@H]2C(=O)N2CCC[C@H]2C(=O)NCC(=O)N2CCC[C@H]2C(=O)N[C@@H](CCC(=O)O)C(=O)NCC(=O)NCC(=O)NCC(=O)N[C@@H](CCCCN)C(=O)O)C(C)C)NC(=O)[C@H](C(C)C)NC(=O)[C@H](Cc2c[nH]cn2)NC(=O)[C@H]([C@@H](C)O)NC(=O)[C@H](CC(C)C)NC(=O)[C@H](CCC(=O)O)NC(=O)[C@H](CC(=O)O)NC1=O` [DX216] (Ac-GSSRLCHMDELTHVCVHFAPPGPEGGGK-OH; disulfide 6-15; C-terminus assumed), for which the “release of BLyS from affinity media” value was “would only release BLyS in the presence of pH 2 buffer”.

As for `CC(=O)N[C@@H](C)C(=O)NCC(=O)N[C@@H](CCCCN)C(=O)N[C@@H](CCC(=O)O)C(=O)N1CCC[C@H]1C(=O)N[C@H]1CSSC[C@@H](C(=O)N[C@@H](C)C(=O)N[C@H](C(=O)N[C@@H](CO)C(=O)NCC(=O)N2CCC[C@H]2C(=O)NCC(=O)N2CCC[C@H]2C(=O)N[C@@H](CCC(=O)O)C(=O)NCC(=O)NCC(=O)NCC(=O)N[C@@H](CCCCN)C(=O)O)C(C)C)NC(=O)[C@H](CCC(=O)O)NC(=O)[C@H](Cc2c[nH]c3ccccc23)NC(=O)[C@H](Cc2ccc(O)cc2)NC(=O)[C@H](Cc2ccccc2)NC(=O)[C@H](Cc2ccc(O)cc2)NC1=O` [DX212] (Ac-AGKEPCYFYWECAVSGPGPEGGGK-OH; disulfide 6-12; C-terminus assumed), the “release of BLyS from affinity media” value was “released BLyS with good recoveries on elution with 50% ethylene glycol, pH 4”. As for Ac-GYDVLTKLYFVPGGPGPEGGGK [DX219], the “release of BLyS from affinity media” value is “would only release BLyS in the presence of pH 2 buffer”. As for `CC(=O)N[C@@H](C)C(=O)NCC(=O)N[C@H](C(=O)N1CCC[C@H]1C(=O)N[C@@H](Cc1ccccc1)C(=O)N[C@H]1CSSC[C@@H](C(=O)N[C@@H](Cc2ccccc2)C(=O)N[C@@H](CCC(=O)O)C(=O)N[C@@H](C)C(=O)NCC(=O)N2CCC[C@H]2C(=O)NCC(=O)N2CCC[C@H]2C(=O)N[C@@H](CCC(=O)O)C(=O)NCC(=O)NCC(=O)NCC(=O)N[C@@H](CCCCN)C(=O)O)NC(=O)[C@H](Cc2c[nH]cn2)NC(=O)[C@H](CCCCN)NC(=O)[C@H]([C@@H](C)O)NC(=O)[C@H](CC(C)C)NC(=O)[C@H](CC(C)C)NC(=O)[C@H](CC(=O)O)NC1=O)C(C)C` [DX214] (Ac-AGVPFCDLLTKHCFEAGPGPEGGGK-OH; disulfide 6-13; C-terminus assumed), the entry is “would only release BLyS in the presence of pH 2 buffer”; as for Ac-WTDSLTGLWFPDGGPGPEGGGK [DX221], “would only release BLyS in the presence of pH 2 buffer”.
